Experimental data as given in patent publication US4093574A, “Somatostatin analogs and intermediates thereto” (Eli Lilly and Company, priority 1977, dated 1978).
Where a SMILES comes first, the peptide text is derived from it. Bridges are numbered along the chain shown (N, C = ends). [ ]: non-standard residue; d: D form.

Tests used:
pancreatic secretion = experiment: inhibition of pancreatic secretion in dogs with pancreatic and total gastric fistula; type: in vivo
Experimental: In three dogs having both pancreatic and total gastric fistula, secretion from the pancreas was induced by infusion of […] at 2 units/kg-hr. and cholecystokinin at 0.45 unit/kg-hr., and gastric HCl by infusion of tetragastrin at 0.5 μg/kg-hr. After a steady response was established, each dog received D-Ser^2, D-Trp^8 -somatostatin for one hour at 0.2 μg/kg-hr. The peak inhibitory effect expressed as percent change over control for total protein was -76%. This corresponds to the inhibitory effect obtained by administration of about 0.6 μg/kg-hr. of somatostatin.

growth hormone secretion = experiment: release of growth hormone in sodium pentobarbital-stimulated rats; type: in vivo, male Spraque-Dawley rats; conditions: serum GH at 20 minutes
Experimental: D-Ser^2, D-Trp^8 -somatostatin also was tested for its activity with respect to the release of growth hormone. The procedure which was employed is carried out using male Spraque-Dawley rats weighing 100-120 grams (Laboratory Supply Company, Indianapolis, Ind.). The test is a modification of the method of P. Brazeau, W. Vale, and R. Guilleman, Endocrinology, 94 184 (1974). In this assay, five groups of eight rats each were employed. Sodium pentobarbital was administered intraperitoneally to all of the rats to stimulate growth hormone secretion. One group served as the control and received only saline. Two of the groups received somatostatin, one at 2 μg./rat, subcutaneously, and the other at 50 μg./rat, subcutaneously. The other two groups received D-Ser^2, D-Trp^8 -somatostatin, one at 2 μg./rat, subcutaneously, and the other at 50 μg./rat, subcutaneously. The serum concentration of growth hormone was measured 20 minutes after simultaneous administration of sodium pentobarbital and test compound. The degree of inhibition of serum growth hormone concentration then was determined with respect to the control group, and the relative activities of D-Ser^2, D-Trp^8 -somatostatin and somatostatin itself were compared. […]

[1] = system: glucagon and insulin secretion; experiment: in vivo inhibition of glucagon and insulin secretion upon stimulation with L-alanine; design: species or system mongrel dogs; conditions: fasted dogs, intravenous infusion
Experimental: D-Ser^2, D-Trp^8 -somatostatin was tested for its in vivo activity in inhibiting glucagon and insulin secretion upon stimulation with L-alanine. Normal mongrel dogs of either sex were fasted overnight. Control blood samples were obtained, and then an intravenous infusion of saline, somatostatin, or D-Ser^2, D-Trp^8 -somatostatin was started. After 30 minutes, L-alanine additionally was administered intravenously for a period of 15 minutes. The infusion of saline, somatostatin, or D-Ser^2, D-Trp^8 -somatostatin was continued for 15 minutes after completion of the L-alanine infusion. From the above it was determined that the minimal effective concentration of D-Ser^2, D-Trp^8 -somatostatin is about 25 nanograms/kg./min. whereas the minimal effective concentration of somatostatin is about 100 nanograms/kg./min.

[2] = system: gastric HCl secretion induced by the C-terminal tetrapeptide of gastrin; experiment: in vivo inhibition of gastric acid secretion in dogs with chronic fistula and Heidenhain pouch
Experimental: D-Ser^2, D-Trp^8 -somatostatin was tested in dogs for its in vivo inhibition of gastric acid secretion. In six dogs with chronic fistula and Heidenhain pouch, gastric HCl secretion was induced by infusion of the C-terminal tetrapeptide of gastrin at 0.5 μg/kg-hr. Each dog served as its own control, receiving on a separate day only the tetrapeptide. On another day, the six dogs received the tetrapeptide, and, after one hour of steady state secretion of HCl, D-Ser^2, D-Trp^8 -somatostatin was infused at 0.20 μg/kg-hr. for one hour. Collection of gastric acid samples was continued for an additional 1.5 hours at 15 minute intervals. The samples were titrated to pH 7 with an automatic titrator. The maximal inhibitory effect of the D-Ser^2, D-Trp^8 -somatostatin was extrapolated against the dose-response curve of somatostatin, and the relative potency of the analog to that of somatostatin is expressed as percent activity. D-Ser^2, D-Trp^8 -somatostatin inhibited steady state acid secretion induced by the C-terminal tetrapeptide of gastrin by 73.5 ± 4.8% standard error of mean. This effect is equivalent to that of 0.545 μg/kg-hr. of somatostatin. Its activity relative to that of somatostatin thus is 273%.

gut motility = experiment: action on gut motility in conscious dogs (intralumenal pressure); type: in vivo; conditions: intravenous infusion over ten minutes, pylorus, duodenum, antrum
Experimental: D-Ser^2, D-Trp^8 -somatostatin also was tested for its action on gut motility in conscious dogs. Three dogs having intralumenal catheters placed in the antrum, duodenum, and pylorus were used. Pressure changes in the gut lumen were recorded on a Visicorder using strain gauges and miniature light beam galvanometers. After a steady state control was established, D-Ser^2, D-Trp^8 -somatostatin was infused intravenously over a ten minute period. […] This compared to a minimum effective dose of 0.125-0.25 μg./kg.--10 minutes for somatostatin itself.

Q: For `C[C@H](N)C(=O)N[C@H](CO)C(=O)N[C@H]1CSSC[C@@H](C(=O)O)NC(=O)[C@H](CO)NC(=O)[C@H]([C@@H](C)O)NC(=O)[C@H](Cc2ccccc2)NC(=O)[C@H]([C@@H](C)O)NC(=O)[C@H](CCCCN)NC(=O)[C@@H](Cc2c[nH]c3ccccc23)NC(=O)[C@H](Cc2ccccc2)NC(=O)[C@H](Cc2ccccc2)NC(=O)[C@H](CC(N)=O)NC(=O)[C@H](CCCCN)NC1=O` [D-Ser^2, D-Trp^8 -somatostatin] (H-A[dS]CKNFF[dW]KTFTSC-OH; disulfide 3-14), which “peak inhibitory effect, percent change over control for total protein” value (pancreatic secretion; 0.2 μg/kg-hr for one hour, pancreatic secretion induced by secretin and cholecystokinin) is on record?
A: -76%

Q: What about the “dose of somatostatin giving corresponding inhibitory effect on pancreatic secretion” value (pancreatic secretion; analog at 0.2 μg/kg-hr) of the same compound?
A: about 0.6 μg/kg-hr.

Q: What about the “inhibition of growth hormone secretion over control” value (growth hormone secretion; 2 μg./rat subcutaneously) of the same compound?
A: same effect on growth hormone secretion as somatostatin

Q: And the “inhibition of growth hormone secretion over control” value (growth hormone secretion; 50 μg./rat subcutaneously)?
A: 66%

Q: And the “minimal effective concentration for inhibiting glucagon and insulin secretion” value [1]?
A: about 25 nanograms/kg./min.

Q: And the “dose of somatostatin with equivalent effect on acid secretion” value ([2]; analog at 0.20 μg/kg-hr., extrapolated against dose-response curve of somatostatin)?
A: 0.545 μg/kg-hr.

Q: And the “inhibition of steady state acid secretion induced by the C-terminal tetrapeptide of gastrin” value ([2]; infused at 0.20 μg/kg-hr. for one hour, ± standard error of mean)?
A: 73.5 ± 4.8%

Q: And the “activity relative to that of somatostatin (gastric acid secretion)” value ([2]; relative potency expressed as percent activity)?
A: 273%

Q: And the “effect on intralumenal pressure” value (gut motility)?
A: initially increased the intralumenal pressure in the pylorus and then decreased it whereas the pressure in the duodenum and the antrum remained depressed throughout the test
